Literature values in patent publication US20230405076A1, “COMPOSITION COMPRISING AKKERMANSIA MUCINIPHILA AND GREEN TEA EXTRACT” (A-MANSIA BIOTECH, priority 2020, published 2023).

What was measured:
[1] = test system: Akkermansia genus in the Verrucomicrobia; settings: high fat diet mice, Ushiroda 2019
[2] = via EGCG promoted increase of Akkermansia muciniphila, Sheng 2018

Epigallocatechin-3-gallate
abundance of the Akkermansia genus [1]: increase | diet-increased obesity, visceral fat, and insulin resistance [2]: effectively reduces
